# Assay results from patent US7595398B2, “N-(5-membered aromatic ring)-amido anti-viral compounds” (SmithKline Beecham Corporation, priority 2005, dated 2009).
# System: HCV replicon I389luc-ubi-neo/NS3-3′/ET in ET (Huh-lucubineo-ET) cells; screening for HCV RNA dependent RNA polymerase
# Assay: Replicon Assay (luciferase, ET cell line Huh-lucubineo-ET)
# Assay type: cell-based
# Conditions: Hepatitis C virus; inhibition of replication relative to no compound control; test concentration of 10 μM according to the fitted equation; luciferase 48-72 hours
# Outline: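 Huh-derived ET cells stably carrying an I389luc-ubi-neo/NS3-3′/ET HCV replicon with a luciferase-ubiquitin-neomycin phosphotransferase fusion and adaptive NS3-5B mutations were cultured in DMEM with 10% fetal calf serum and 250 μg/mL G418. Cells were seeded at 0.5-1.0×10^4 cells/well in 96 well plates and given compound after 24 hrs. Luciferase was read 48-72 hours later with Bright-Glo reagents, and replication inhibition was expressed relative to untreated controls.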
row,SMILES,inhibition at 10 µM
1,"CC1(C)CC(c2csc(NC(=O)[C@@H]3CCCN3C(=O)OCc3ccccc3)n2)CCO1 (stereo in doubt) [Compound 5046, 2-[4-(2,2-Dimethyl-tetrahydro-pyran-4-yl)-thiazol-2-ylcarbamoyl]-pyrrolidine-1-carboxylic acid benzyl ester]",8.29%
2,"O=C(Nc1nc(-c2ccccc2Cl)cs1)[C@@H]1CCCN1C(=O)OCc1ccccc1 [Compound 5103, 2-[4-(2-Chloro-phenyl)-thiazol-2-ylcarbamoyl]-pyrrolidine-1-carboxylic acid benzyl ester]",99.3%
3,"O=C(NC1CC1)c1ccc(-c2csc(NC(=O)C3CCC[C@H]3C(=O)NCc3ccccc3)n2)cc1 (mixture of isomers) [Compound 5340, Cyclopentane-1,2-dicarboxylic acid 1-benzylamide 2-{[4-(4-cyclopropylcarbamoyl-phenyl)-thiazol-2-yl]-amide}]",100%
4,"O=C(Nc1nc(-c2ccc3c(c2)OCO3)cs1)[C@@H]1CCCN1C(=O)OCc1ccccc1 [Compound 5002, 2-(4-Benzo[1,3]dioxol-5-yl-thiazol-2-ylcarbamoyl)-pyrrolidine-1-carboxylic acid benzyl ester]",94.7%
5,"O=C(NCCCN1CCOCC1)c1ccc(-c2csc(NC(=O)[C@@H]3CCCN3C(=O)OCc3ccccc3)n2)cc1 [Compound 5324, 2-{4-[4-(3-Morpholin-4-yl-propylcarbamoyl)-phenyl]-thiazol-2-ylcarbamoyl}-pyrrolidine-1-carboxylic acid benzyl ester]",100%
6,"COC(=O)N1CCC[C@H]1C(=O)Nc1nc(-c2ccc(C(=O)NC3CC3)cc2)cs1 [Compound 5373, 2-[4-(4-Cyclopropylcarbamoyl-phenyl)-thiazol-2-ylcarbamoyl]-pyrrolidine-1-carboxylic acid methyl ester]",81.5%
7,"NC(=O)Nc1ccc(-c2csc(NC(=O)[C@@H]3CCCN3C(=O)OCc3ccccc3)n2)cc1 [Compound 5314, 2-[4-(4-Ureido-phenyl)-thiazol-2-ylcarbamoyl]-pyrrolidine-1-carboxylic acid benzyl ester]",100%
8,"O=C(NC1CC1)c1ccc(-c2csc(NC(=O)[C@@H]3SCCN3C(=O)OCc3ccccc3)n2)cc1 [Compound 5350, 2-[4-(4-Cyclopropylcarbamoyl-phenyl)-thiazol-2-ylcarbamoyl]-thiazolidine-3-carboxylic acid benzyl ester]",100%
9,"O=C(Nc1nc(-c2ccc(C(=S)NC3CC3)cc2)cs1)[C@@H]1CCCN1C(=O)OCc1ccccc1 [Compound 5308, 2-[4-(4-Cyclopropylthiocarbamoyl-phenyl)-thiazol-2-ylcarbamoyl]-pyrrolidine-1-carboxylic acid benzyl ester]",100%
10,"O=C(Nc1ncc(Cc2ccc(Cl)cc2Cl)s1)[C@@H]1CCCN1C(=O)OCc1ccccc1 [Compound 5031, 2-[5-(2,4-Dichloro-benzyl)-thiazol-2-ylcarbamoyl]-pyrrolidine-1-carboxylic acid benzyl ester]",2.85%
11,"O=C(Nc1nc(COc2ccc(Cl)cc2)cs1)[C@@H]1CCCN1C(=O)OCc1ccccc1 [Compound 5045, 2-[4-(4-Chloro-phenoxymethyl)-thiazol-2-ylcarbamoyl]-pyrrolidine-1-carboxylic acid benzyl ester]",6.85%
12,"O=C(Nc1nc(CSc2nc(-c3ccc(F)cc3)cs2)cs1)[C@@H]1CCCN1C(=O)OCc1ccccc1 [Compound 5061, 2-{4-[4-(4-Fluoro-phenyl)-thiazol-2-ylsulfanylmethyl]-thiazol-2-ylcarbamoyl}-pyrrolidine-1-carboxylic acid benzyl ester]",88.4%
13,"O=C(Nc1ccccc1)c1ccc(-c2csc(NC(=O)C3CCCN3C(=O)OCc3ccccc3)n2)cc1 (centres unmarked) [Compound 5109, 2-[4-(4-Phenylcarbamoyl-phenyl)-thiazol-2-ylcarbamoyl]-pyrrolidine-1-carboxylic acid benzyl ester]",100%
14,"O=C(Nc1ncc(Cc2ccccc2Cl)s1)[C@@H]1CCCN1C(=O)OCc1ccccc1 [Compound 5052, 2-[5-(2-Chloro-benzyl)-thiazol-2-ylcarbamoyl]-pyrrolidine-1-carboxylic acid benzyl ester]",1.2%
15,"CC(C)(CN1CCOCC1)NC(=O)c1ccc(-c2csc(NC(=O)[C@@H]3CCCN3C(=O)OCc3ccccc3)n2)cc1 [Compound 5306, 2-{4-[4-(1,1-Dimethyl-2-morpholin-4-yl-ethylcarbamoyl)-phenyl]-thiazol-2-ylcarbamoyl}-pyrrolidine-1-carboxylic acid benzyl ester]",100%
16,"O=C(Nc1cccc(-c2csc(NC(=O)C3CCCN3C(=O)OCc3ccccc3)n2)c1)c1ccccc1 (centres unmarked) [Compound 5019, 2-[4-(3-Benzoylamino-phenyl)-thiazol-2-ylcarbamoyl]-pyrrolidine-1-carboxylic acid benzyl ester]",100%

row,SMILES,inhibition at 10 µM
1,"O=C(NC1CC1)c1ccc(-c2csc(NC(=O)[C@@H]3CCCN3C(=O)Cc3ccccc3)n2)cc1 [Compound 5325, 1-Phenylacetyl-pyrrolidine-2-carboxylic acid [4-(4-cyclopropylcarbamoyl-phenyl)-thiazol-2-yl]-amide]",86.9%
2,"O=C(NC1CC1)c1ccc(-c2csc(NC(=O)[C@@H]3CCCN3C(=O)OCc3ccc(F)cc3)n2)cc1 [Compound 5361, 2-[4-(4-Cyclopropylcarbamoyl-phenyl)-thiazol-2-ylcarbamoyl]-pyrrolidine-1-carboxylic acid 4-fluoro-benzyl ester]",98.4%
3,"O=C(Nc1cccc(-c2cnc(NC(=O)[C@@H]3CCCN3C(=O)OCc3ccccc3)s2)c1)C1CC1 [Compound 5108, 2-{5-[3-(Cyclopropanecarbonyl-amino)-phenyl]-thiazol-2-ylcarbamoyl}-pyrrolidine-1-carboxylic acid benzyl ester]",98.9%
4,"Cc1cc(-c2csc(NC(=O)[C@@H]3CCCN3C(=O)OCc3ccccc3)n2)cc(C)c1C [Compound 5062, 2-[4-(3,4,5-Trimethyl-phenyl)-thiazol-2-ylcarbamoyl]-pyrrolidine-1-carboxylic acid benzyl ester]",94.7%
5,"N#Cc1ccc(-c2csc(NC(=O)[C@@H]3CCCN3C(=O)OCc3ccccc3)n2)cc1 [Compound 5305, 2-[4-(4-Cyanophenyl)-thiazol-2-ylcarbamoyl]-pyrrolidine-1-carboxylic acid benzyl ester]",76.3%
6,"O=C(O)c1ccc(-c2csc(NC(=O)[C@@H]3CCCN3C(=O)OCc3ccccc3)n2)cc1 [Compound 5106, 2-[4-(4-Carboxy-phenyl)-thiazol-2-ylcarbamoyl]-pyrrolidine-1-carboxylic acid benzyl ester]",46.3%
7,"O=C(NCCN1CCOCC1)c1ccc(-c2csc(NC(=O)C3CCCN3C(=O)OCc3ccccc3)n2)cc1 (centres unmarked) [Compound 5339, 2-{4-[4-(2-Morpholin-4-yl-ethylcarbamoyl)-phenyl]-thiazol-2-ylcarbamoyl}-pyrrolidine-1-carboxylic acid benzyl ester]",100%
8,"O=C(NC1CC1)c1ccc(-c2csc(NC(=O)[C@@H]3CCCN3CCc3ccccc3)n2)cc1 [Compound 5316, 1-Phenethyl-pyrrolidine-2-carboxylic acid [4-(4-cyclopropylcarbamoyl-phenyl)-thiazol-2-yl]-amide]",3.19%
9,"O=C(NC1CC1)c1ccc(-c2csc(NC(=O)[C@@H]3COCN3C(=O)OCc3ccccc3)n2)cc1 [Compound 5313, 4-[4-(4-Cyclopropylcarbamoyl-phenyl)-thiazol-2-ylcarbamoyl]-oxazolidine-3-carboxylic acid benzyl ester]",100%
10,"CC(C)(C)OC(=O)N1CCC(NC(=O)c2ccc(-c3csc(NC(=O)[C@@H]4CCCN4C(=O)OCc4ccccc4)n3)cc2)CC1 [Compound 5336, 4-(4-{2-[(1-Benzyloxycarbonyl-pyrrolidine-2-carbonyl)-amino]-thiazol-4-yl}-benzoylamino)-piperidine-1-carboxylic acid tert-butyl ester]",96.3%
11,"O=C(Nc1nc2cc3ccccc3cc2s1)[C@@H]1CCCN1C(=O)OCc1ccccc1 [Compound 5035, 2-(Naphtho[2,3-d]thiazol-2-ylcarbamoyl)-pyrrolidine-1-carboxylic acid benzyl ester]",100%
12,"O=C(NC1CC1)c1ccc(-c2csc(NC(=O)[C@@H]3CCCN3C(=O)C3(c4ccccc4)CC3)n2)cc1 [Compound 5371, 1-(1-Phenyl-cyclopropanecarbonyl)-pyrrolidine-2-carboxylic acid [4-(4-cyclopropylcarbamoyl-phenyl)-thiazol-2-yl]-amide]",100%
13,"COc1ccc2cc(-c3csc(NC(=O)[C@@H]4CCCN4C(=O)OCc4ccccc4)n3)c(=O)oc2c1 [Compound 5043, 2-[4-(7-Methoxy-2-oxo-2H-chromen-3-yl)-thiazol-2-ylcarbamoyl]-pyrrolidine-1-carboxylic acid benzyl ester]",3.61%
14,"O=C(Nc1cccc(-c2csc(NC(=O)C3CCCN3C(=O)OCc3ccccc3)n2)c1)C1CC1 (centres unmarked) [Compound 5039, 2-{4-[3-(Cyclopropanecarbonyl-amino)-phenyl]-thiazol-2-ylcarbamoyl}-pyrrolidine-1-carboxylic acid benzyl ester]",99.6%
15,"O=C(NC1CC1)c1ccc(-c2csc(NC(=O)C3CCCN3C(=O)CCc3ccccc3)n2)cc1 (centres unmarked) [Compound 5358, 1-(3-Phenyl-propionyl)-pyrrolidine-2-carboxylic acid [4-(4-cyclopropylcarbamoyl-phenyl)-thiazol-2-yl]-amide]",84.8%
16,"CC(=O)c1ccc(-c2csc(NC(=O)[C@@H]3CCCN3C(=O)OCc3ccccc3)n2)cc1 [Compound 5309, 2-[4-(4-Acetyl-phenyl)-thiazol-2-ylcarbamoyl]-pyrrolidine-1-carboxylic acid benzyl ester]",99.5%
